Data on seven compounds can be found in article PMC2919490 (Journal of agricultural and food chemistry, 2010).

Where two headings read alike, the source gives them in different places.

The subject of data set [1] is Caco-2 cells. Nature of the data set: Marker compounds hydrolysis and metabolism in Caco-2 transport study. It is filed as in vitro ADME, human. The conditions noted are these: Caco-2 transport studies; for glucuronidation and sulfation metabolites: UPLC-MS/MS, of marker compounds and their aglycone; for hydrolysis to aglycone: aglycone by UPLC-MS/MS. On the technique in general: Caco-2 cells form a polarised layer with tight junctions and transporters.

The test system of data set [2] is Caco-2 cells. The following applies: cited from earlier work.
The next data set has as its system Caco-2 cell monolayer. It is filed as in vitro ADME, human. The following applies: for Pa-b as percent of control: pH 6.8, 37 °C.
The conditions of data set [3]: especially under light exposure; cited from earlier work.
A short description of data set [4]: Stability of transport study solutions in HBSS at 37 °C. The format is physicochemical. The conditions noted are these: HBSS pH 6.8, 37 °C water bath, 0, 1, 2, 4 and 6 hour, UPLC-MS/MS.
The next data set deals with MRP2 (Homo sapiens, UniProt Q92887). Nature of the data set: Caco-2 transport of isoquercitrin in the presence of MRP2 inhibitor MK 571. The format is in vitro ADME.
Sequence of MRP2 (Q92887 whole entry): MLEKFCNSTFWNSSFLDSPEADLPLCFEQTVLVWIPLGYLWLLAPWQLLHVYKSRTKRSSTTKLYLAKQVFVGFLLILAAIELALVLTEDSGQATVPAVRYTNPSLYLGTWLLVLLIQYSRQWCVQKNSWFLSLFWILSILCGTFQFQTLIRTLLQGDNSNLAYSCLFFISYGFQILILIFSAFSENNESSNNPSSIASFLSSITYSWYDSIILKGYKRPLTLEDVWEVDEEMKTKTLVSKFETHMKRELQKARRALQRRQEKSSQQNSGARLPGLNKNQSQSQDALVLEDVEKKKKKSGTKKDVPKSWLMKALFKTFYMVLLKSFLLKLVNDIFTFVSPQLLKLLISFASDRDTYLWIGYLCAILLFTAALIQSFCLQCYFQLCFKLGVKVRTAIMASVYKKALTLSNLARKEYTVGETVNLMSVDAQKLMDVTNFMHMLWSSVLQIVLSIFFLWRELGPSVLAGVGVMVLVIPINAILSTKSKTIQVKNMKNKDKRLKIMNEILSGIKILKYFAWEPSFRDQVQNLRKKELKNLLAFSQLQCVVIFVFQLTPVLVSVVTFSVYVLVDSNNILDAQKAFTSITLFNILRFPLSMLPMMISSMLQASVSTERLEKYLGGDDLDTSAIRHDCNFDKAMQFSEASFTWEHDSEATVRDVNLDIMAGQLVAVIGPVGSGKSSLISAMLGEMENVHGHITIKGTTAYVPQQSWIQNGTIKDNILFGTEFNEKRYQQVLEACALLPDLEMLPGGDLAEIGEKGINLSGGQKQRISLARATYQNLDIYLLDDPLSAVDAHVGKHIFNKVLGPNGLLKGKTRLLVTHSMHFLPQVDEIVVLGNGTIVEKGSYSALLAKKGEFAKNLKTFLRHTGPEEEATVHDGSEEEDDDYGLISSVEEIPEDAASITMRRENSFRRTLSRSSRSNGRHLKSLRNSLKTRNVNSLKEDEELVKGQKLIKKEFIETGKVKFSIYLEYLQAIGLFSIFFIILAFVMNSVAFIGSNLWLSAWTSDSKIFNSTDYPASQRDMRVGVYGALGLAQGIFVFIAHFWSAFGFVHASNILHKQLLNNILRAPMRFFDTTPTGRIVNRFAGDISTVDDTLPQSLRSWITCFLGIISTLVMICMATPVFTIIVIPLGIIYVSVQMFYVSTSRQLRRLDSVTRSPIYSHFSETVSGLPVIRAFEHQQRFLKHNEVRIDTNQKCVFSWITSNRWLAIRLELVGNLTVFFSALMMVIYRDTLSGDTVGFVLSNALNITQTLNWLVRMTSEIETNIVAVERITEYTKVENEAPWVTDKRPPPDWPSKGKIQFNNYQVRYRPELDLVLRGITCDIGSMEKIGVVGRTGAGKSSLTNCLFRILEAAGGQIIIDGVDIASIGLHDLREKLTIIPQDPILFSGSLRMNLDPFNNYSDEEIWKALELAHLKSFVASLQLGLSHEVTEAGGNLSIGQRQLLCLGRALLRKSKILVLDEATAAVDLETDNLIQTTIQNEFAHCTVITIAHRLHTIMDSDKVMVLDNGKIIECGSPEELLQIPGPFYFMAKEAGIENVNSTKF
The test system of a further data set is SGLT1. Put plainly: Caco-2 transport of isoquercitrin in the presence of phloridzin. It is filed as in vitro ADME, human. The following applies: pure isoquercitrin 10 μM, 50 μM phloridzin.
Data set [5] is classed as in vitro ADME, human. The following applies: human, Caco-2, pH 6.8, efflux ratio (Pba/Pab), vectorial transport ratio.
Setting [6] is: in product 1 matrix, control pure compound 10 μM.
The mark [7] stands for this setting: in product 2 matrix, control pure compound 10 μM.
Setting [8] is: isoquercitrin in product 2, 50 μM MK 571.
Where [9] appears, read: isoquercitrin in product 4, 50 μM MK 571.
[10] abbreviates: pure isoquercitrin 10 μM, 50 μM MK 571 at apical side.

In the case of `C[C@@H]1O[C@@H](OC[C@H]2O[C@@H](Oc3c(-c4ccc(O)c(O)c4)oc4cc(O)cc(O)c4c3=O)[C@H](O)[C@@H](O)[C@@H]2O)[C@H](O)[C@H](O)[C@H]1O` [rutin], in the data set with Caco-2 cells [1], the “glucuronidation and sulfation metabolites” value was “not detected”; the hydrolysis to aglycone result is on record as “not hydrolyzed”.
For `C[C@@H]1O[C@@H](O[C@H]2[C@H](Oc3cc(O)c4c(c3)O[C@H](c3ccc(O)cc3)CC4=O)O[C@H](CO)[C@@H](O)[C@@H]2O)[C@H](O)[C@H](O)[C@H]1O` [naringin], in the data set with Caco-2 cells [2] (Caco-2), the permeability is 0.8 nm/s and the “permeability (words)” value was “not permeable”.
As for `COc1ccc([C@@H]2CC(=O)c3c(O)cc(O[C@@H]4O[C@H](CO[C@@H]5O[C@@H](C)[C@H](O)[C@@H](O)[C@H]5O)[C@@H](O)[C@H](O)[C@H]4O)cc3O2)cc1O` [hesperidin], in the data set with Caco-2 cells [2] (HPLC-UV, 120 min transport), the “permeability (words)” value is “not permeable”.
Take `C[C@H]1O[C@H](OC[C@H]2O[C@@H](Oc3c(-c4ccc(O)cc4)oc4cc(O)cc(O)c4c3=O)[C@H](O)[C@@H](O)[C@@H]2O)[C@@H](O)[C@@H](O)[C@@H]1O` [kaempferol-3-rutinoside]: in the data set on Caco-2 cell monolayer (Caco-2, pH 6.8), the “efflux ratio (Pba/Pab)” value is given as 3.5. Also, the vectorial transport ratio with Caco-2 cell monolayer (human, Caco-2, 4 h, 50 µM, pH 6.8) is 0.16.
For `Cc1cc(O)c2c(=O)c3c(O)cc(O)c4c5c(O)cc(O)c6c(=O)c7c(O)cc(C)c8c1c2c(c34)c(c78)c65` [hypericin], in data set [3], the “stability in aqueous solutions” value is given as “highly unstable”.
Turning to `O=c1c(O[C@@H]2O[C@H](CO)[C@H](O)[C@H](O)[C@H]2O)c(-c2ccc(O)c(O)c2)oc2cc(O)cc(O)c12` [hyperoside], the “stability in experimental solutions (relative peak area as a function of time)” value in data set [4] is listed as “stable”. In the data set on Caco-2 cells [1], the “glucuronidation and sulfation metabolites” value is reported as “not detected”; the hydrolysis to aglycone result is “not hydrolyzed”. In the data set with Caco-2 cell monolayer (setting [6]), the “Pa-b compared with control” value is recorded as “not altered”. Further, the “Pa-b as percent of control” value in the data set on Caco-2 cell monolayer (setting [7]) was 54%. Moreover, the “Pa-b as percent of control” value in the data set with Caco-2 cell monolayer (in product 4 matrix, control pure compound 10 μM) is given as 46%.
As for `O=c1c(O[C@@H]2O[C@H](CO)[C@@H](O)[C@H](O)[C@H]2O)c(-c2ccc(O)c(O)c2)oc2cc(O)cc(O)c12` [isoquercitrin], the efflux ratio (as a rule, a quotient of directional permeabilities that is used to spot active efflux) at 4 h on MRP2 (human, Caco-2, with MK 571, 50 µM) is 0.4. Further, at MRP2 (setting [8]), the “Pa-b change with MK 571” value was “didn't increase significantly” and the “Pb-a reduction with MK 571” value is listed as 1.8 times. Moreover, on MRP2 (setting [9]), the “Pa-b increase with MK 571” value came to 2.9 times, the “Pb-a change with MK 571” value is “didn't change” and the “Pb-a versus Pa-b” value is “not statistically different”. Besides, the vectorial transport ratio at MRP2 (pure isoquercitrin 10 μM, 50 μM MK 571) was 1. Also, on MRP2 (setting [10]), the “Pa-b increase compared with control” value was determined as 3.2 times and the “Pb-a decrease compared with control” value is on record as 5.2 times. Besides, in the data set with SGLT1, the “Pa-b increase compared to the control” value is reported as 2.9 times; the “difference between Pa-b and Pb-a” value was “diminished”. Besides, the “stability in experimental solutions (relative peak area as a function of time)” value in data set [4] was “stable”. In the data set on Caco-2 cells [1], the “glucuronidation and sulfation metabolites” value is “not detected”; the hydrolysis to aglycone result is listed as “not hydrolyzed”. For the same compound, the “Pb-a as percent of control” value in the data set with Caco-2 cell monolayer (setting [6]) is given as 78%. The “Pb-a as percent of control” value in the data set on Caco-2 cell monolayer (setting [7]) worked out at 42%. Also, in data set [5], the efflux ratio at 4 h, 10 µM turned out to be 7.13.
